Data from US20100016285A1, “HETEROCYCLIDENE-N-(ARYL) ACETAMIDE DERIVATIVE” (MOCHIDA PHARMACEUTICAL CO., LTD., priority 2007, published 2010).

Assays:
human TRPV1 [1] = molecular target: T1, human TRPV1 (Homo sapiens, UniProt Q8NER1); experiment: Capsaicin-induced Ca influx in transformed CHO cells, FDSS-6000 (b-1), A2 value; type: cell-based; details: concentration shifting the capsaicin concentration-reaction curve two times rightward; CHO cells expressing TRPV1
T1 construct: expressed in transfected cells; host or cells: CHO-K1 cells, pCAGGS vector, clones selected by limiting dilution
Text: (§1) (1) Measurement of Capsaicin-Induced Ca Influx in a Transformed CHO Cell Line Expressing Human TRPV1
(§2) (a) Establishment of a Transformed CHO Cell Line Expressing Human and Rat TRPV1
(§3) Human and rat vanilloid receptor 1 (hTRPV1 and rTRPV1) cDNA was cloned from human brain and rat dorsal root ganglion, respectively. The cloned TRPV1 cDNA was incorporated in a pCAGGS vector. The vector was introduced to a CHO-K1 cell line, thus performing transformation. Clones obtained by limiting dilution were stimulated with capsaicin. Clones with a high responsiveness were selected using an increase in the Ca concentration as an indicator. The selected clones were used for the following experiment.
(b-1) Measurement of Ca Influx using FDSS-6000
The transformed CHO cells expressing human or rat TRPV1 were seeded in a 96-well plate (with black walls and transparent bottoms, manufactured by Greiner) at a density of 40,000 cells per well. The cells were cultured at 37° C. in 5% CO2 atmosphere for one night. A loading solution of FLIPR Calcium 3 assay kit (manufactured by Molecular Devices Corporation) containing 2.5 mmol/L of probenecid was then added to each of the wells in the same amount as the culture medium, and the cells were cultured at 37° C. for 60 minutes. For three minutes after the cells were stimulated with capsaicin (1 nmol/L to 1 μmol/L), the change of the intracellular Ca concentration was measured using FDSS-6000 (λex: 480 nm, λem: […], manufactured by Hamamatsu Photonics K.K.). The integrated values of the increase rate of the intracellular Ca concentration were calculated for a group treated with the compounds of the present invention and a group treated with a vehicle, thus allowing capsaicin concentration-reaction curves to be obtained. A concentration (A2 value) of each of the compounds of the present invention, at which the capsaicin concentration-reaction curve obtained when the cells were treated with the vehicle was shifted two times rightward, was calculated. The inhibitory effects of the test compounds were compared using this value as an indicator.

[2] = Effects on rectal temperature (8-1), oral administration to rats; type: in vivo, rat; details: oral single doses of 3, 10 and 30 mg/kg; 30, 60 and 120 minutes; maximum absolute difference vs vehicle
Procedure: (8-1) Effects on Rectal Temperature
A test compound was orally administered to rats at single doses of 3, 10 and 30 mg/kg. Then rectal temperature was measured 30, 60 and 120 minutes after administration.
Differences of the mean value between a group treated with test substance and a vehicle-treated group were calculated at all measuring points and, based on the maximum absolute value of differences, changes in rectal temperature were divided into the following three categories:
−: the maximum value was less than 0.5 degree Celsius +: the maximum value was more than 0.5 degree but less than 1.0 degree Celsius ++: the maximum value was more than 1.0 degree Celsius

human TRPV1 [3] = molecular target: T1, human TRPV1; experiment: Capsaicin (10 nmol/L)-induced Ca influx in transformed CHO cells, FDSS-6000 (b-2), IC50; type: cell-based
Text: as §1, §2, §3
(b-2) Measurement of Ca Influx using FDSS-6000
The transformed CHO cells expressing human or rat TRPV1 were inoculated in a 96-well plate (with black walls and transparent bottoms, manufactured by Greiner) at a density of 40,000 cells per well. The cells were cultured at 37° C. in 5% CO2 atmosphere for one night. A loading solution of FLIPR Calcium 3 assay kit (manufactured by Molecular Devices Corporation) containing 2.5 mmol/L of probenecid was then added to each of the wells in the same amount as the culture medium, and the cells were cultured at 37° C. for 60 minutes. For three minutes after the cells were stimulated with capsaicin (10 nmol/L), the change of the intracellular Ca concentration was measured using FDSS-6000 (λex: 480 nm, λem: 540 nm, manufactured by Hamamatsu Photonics K.K.). The integrated values of the increase rate of the intracellular Ca concentration were calculated for a group treated with the compounds of the present invention and a group treated with a vehicle. Then, the concentration of the compound of the present invention was calculated that inhibits 50% of the intracellular Ca concentration increase induced by capsaicin (IC50). Using this value as the index, inhibitory effects of the test compounds were compared. In addition, when IC50 value in human TRPV1 was less than 100 nmol/L, it was shown as A in Table 1C.

T1 sequence (Q8NER1 whole entry): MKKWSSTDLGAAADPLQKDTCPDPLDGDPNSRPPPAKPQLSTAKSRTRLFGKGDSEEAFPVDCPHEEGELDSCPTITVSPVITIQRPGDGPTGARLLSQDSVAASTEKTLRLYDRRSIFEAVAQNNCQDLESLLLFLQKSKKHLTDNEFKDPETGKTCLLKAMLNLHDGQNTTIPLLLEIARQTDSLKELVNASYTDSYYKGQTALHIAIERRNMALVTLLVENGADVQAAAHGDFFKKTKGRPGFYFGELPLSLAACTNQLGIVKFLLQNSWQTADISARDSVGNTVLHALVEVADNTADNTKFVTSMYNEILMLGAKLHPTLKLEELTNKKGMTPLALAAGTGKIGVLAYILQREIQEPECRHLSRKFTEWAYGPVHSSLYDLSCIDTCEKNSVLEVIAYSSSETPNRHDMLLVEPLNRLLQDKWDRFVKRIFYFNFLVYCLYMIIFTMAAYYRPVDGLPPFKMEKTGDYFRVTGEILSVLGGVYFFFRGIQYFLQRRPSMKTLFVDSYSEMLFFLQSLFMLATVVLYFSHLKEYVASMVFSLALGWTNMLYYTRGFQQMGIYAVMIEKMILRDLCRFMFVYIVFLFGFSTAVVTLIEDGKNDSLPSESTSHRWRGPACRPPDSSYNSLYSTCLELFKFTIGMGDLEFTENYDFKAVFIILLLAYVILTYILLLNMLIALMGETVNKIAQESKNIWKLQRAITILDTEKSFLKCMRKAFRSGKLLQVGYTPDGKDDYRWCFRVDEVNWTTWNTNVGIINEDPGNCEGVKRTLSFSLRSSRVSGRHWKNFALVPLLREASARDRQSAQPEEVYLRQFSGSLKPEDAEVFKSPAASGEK

| Compound | A2 value (human TRPV1 [1]) | IC50 (human TRPV1 [3]) [nM] | Change in rectal temperature in rats [2] |
| --- | --- | --- | --- |
| O=C(/C=C1\CCCOc2cc(C(F)(F)F)ccc21)Nc1ccc2c(c1)NC(=O)NC2 [EXAMPLE 13, (E)-2-(8-trifluoromethyl-3,4-dihydrobenzo[b]oxepin-5(2H)-ylidene)-N-(3,4-dihydro-1H-quinazolin-2-on-7-yl)acetamide] | A (A2 value of less than 100 nM) |  | − (the maximum value was less than 0.5 degree Celsius) |
| CN1c2cc(NC(=O)/C=C3\CC4(CCC4)Oc4cc(C(F)(F)F)ccc43)ccc2CCS1(=O)=O [Example 200, (E)-2-(7-trifluoromethyl-spiro[chroman-2,1′-cyclobutane]-4-ylidene)-N-(3,4-dihydro-2,2-dioxo-1-methyl-1H-2,1-benzothiazin-7-yl)acetamide] |  |  | − (the maximum value was less than 0.5 degree Celsius) |
| CC1(C)C/C(=C\C(=O)Nc2ccc3c(c2)NC(=O)C3(C)C)c2ccc(C(F)(F)F)cc2O1 [Example 109, (E)-2-(7-trifluoromethyl-2,2-dimethylchroman-4-ylidene)-N-(3,3-dimethyl-2(1H)-indolinon-6-yl)acetamide] |  |  | − (the maximum value was less than 0.5 degree Celsius) |
| O=C(/C=C1\CCOc2cc(C(F)(F)F)ccc21)Nc1ccc2c(c1)NC(=O)CC2 [EXAMPLE 23, (E)-2-(7-trifluoromethylchroman-4-ylidene)-N-(3,4-dihydroquinolin-2(1H)-on-7-yl)acetamide] | A (A2 value of less than 100 nM) |  | − (the maximum value was less than 0.5 degree Celsius) |
| CC1(C)C(=O)Nc2cc(NC(=O)/C=C3\CC4(CCC4)Oc4cc(C(F)(F)F)ccc43)ccc21 [Example 110, (E)-2-(7-trifluoromethyl-spiro[chroman-2,1′-cyclobutane]-4-ylidene)-N-(3,3-dimethyl-2(1H)-indolinon-6-yl)acetamide] |  |  | − (the maximum value was less than 0.5 degree Celsius) |
| O=C(/C=C1\CCCOc2cc(C(F)(F)F)ccc21)Nc1ccc2c(c1)NC(=O)N(CCO)C2 [EXAMPLE 15, (E)-2-(8-trifluoromethyl-3,4-dihydrobenzo[b]oxepin-5(2H)-ylidene)-N-(3-(2-hydroxyethyl)-3,4-dihydro-2(1H)-quinazolinon-7-yl)acetamide] | A (A2 value of less than 100 nM) |  | − (the maximum value was less than 0.5 degree Celsius) |
| CN1C(=O)NCc2ccc(NC(=O)/C=C3\CCOc4cc(C(F)(F)F)ccc43)cc21 [Example 151, (E)-2-(7-trifluoromethyl-chroman-4-yliden)-N-(3,4-dihydro-1-methyl-2(1H)-quinazolinon-7-yl)acetamide] |  |  | − (the maximum value was less than 0.5 degree Celsius) |
| CC1(C)N/C(=C\C(=O)Nc2ccc3c(c2)NC(=O)CC3)c2ccc(C(F)(F)F)cc2O1 [EXAMPLE 26, (Z)-2-(6-trifluoromethyl-3,3-dimethyl-4-oxa-3,4-dihydroisoquinolin-1(2H)-ylidene)-N-(3,4-dihydroquinolin-2(1H)-on-7-yl)acetamide] | A (A2 value of less than 100 nM) |  | − (the maximum value was less than 0.5 degree Celsius) |
| CC1(C)C/C(=C\C(=O)Nc2ccc3c(c2)NC(=O)C(N2CCOCC2)C3)c2ccc(C(F)(F)F)cc2O1 (single isomer, unassigned) [Example 213, (E)-2-(7-trifluoromethyl-2,2-dimethylchroman-4-ylidene)-N-(3-(4-morpholinyl)-3,4-dihydro-2(1H)-quinolinon-7-yl)acetamide] |  |  | − (the maximum value was less than 0.5 degree Celsius) |
| CC1(C)Nc2ccc(NC(=O)/C=C3\CCCOc4cc(C(F)(F)F)ccc43)cc2NC1=O [EXAMPLE 10, (E)-2-(8-trifluoromethyl-3,4-dihydrobenzo[b]oxepin-5(2H)-ylidene)-N-(3,3-dimethyl-3,4-dihydro-2(1H)-quinoxalinon-7-yl)acetamide] | A (A2 value of less than 100 nM) |  | + (the maximum value was more than 0.5 degree but less than 1.0 degree Celsius) |
| CN1Cc2ccc(NC(=O)/C=C3\CCCOc4cc(C(F)(F)F)ccc43)cc2NC1=O [EXAMPLE 14, (E)-2-(8-trifluoromethyl-3,4-dihydrobenzo[b]oxepin-5(2H)-ylidene)-N-(3-methyl-3,4-dihydro-2(1H)-quinazolinon-7-yl)acetamide] |  |  | − (the maximum value was less than 0.5 degree Celsius) |

Further lines, with some results ahead:

| A2 value (human TRPV1 [1]) | IC50 (human TRPV1 [3]) [nM] | Compound | Change in rectal temperature in rats [2] |
| --- | --- | --- | --- |
|  | < 100 | CN1C(=O)NCc2c(NC(=O)/C=C3\CCCOc4cc(C(F)(F)F)ccc43)cccc21 [Example 302, (E)-2-(3,4-dihydro-8-trifluoromethyl-1-benzoxepin-5(2H)-ylidene)-N-(3,4-dihydro-1-methyl-2(1H)-quinazolinone-5-yl)acetamide] |  |
|  | < 100 | CCN1C(=O)NCc2c(NC(=O)/C=C3\CC(COC)(COC)Oc4cc(C(F)(F)F)ccc43)cccc21 [Example 311, (E)-2-(2,2-bis(methoxymethyl)-7-trifluoromethylchroman-4-ylidene)-N-(3,4-dihydro-1-ethyl-2(1H)-quinazolinone-5-yl)acetamide] |  |
|  | < 100 | CN1C(=O)NCc2c(NC(=O)/C=C3\CCOCc4cc(C(F)(F)F)ccc43)cccc21 [Example 303, (E)-2-(3,4-dihydro-8-trifluoromethyl-2-benzoxepin-5(1H)-ylidene)-N-(3,4-dihydro-1-methyl-2(1H)-quinazolinone-5-yl)acetamide] |  |
|  | < 100 | CN1C(=O)NCc2c(NC(=O)/C=C3\NC(C)(C)Oc4cc(C(F)(F)F)ccc43)cccc21 [Example 313, (Z)-2-(2,3-dihydro-2,2-dimethyl-7-trifluoromethyl-4H-1,3-benzoxazin-4-ylidene)-N-(3,4-dihydro-1-methyl-2(1H)-quinazolinone-5-yl)acetamide] |  |
|  | < 100 | CCN1C(=O)NCc2c(NC(=O)/C=C3\CC(CC)(CC)Oc4cc(C(F)(F)F)ccc43)cccc21 [Example 310, (E)-2-(2,2-diethyl-7-trifluoromethylchroman-4-ylidene)-N-(3,4-dihydro-1-ethyl-2(1H)-quinazolinone-5-yl)acetamide] |  |
|  | < 100 | CCN1C(=O)NCc2c(NC(=O)/C=C3\CC(C)(C)Oc4cc(C(F)(F)F)ccc43)cccc21 [Example 309, (E)-2-(2,2-dimethyl-7-trifluoromethylchroman-4-ylidene)-N-(3,4-dihydro-1-ethyl-2(1H)-quinazolinone-5-yl)acetamide] |  |
|  | < 100 | CCN1C(=O)NCc2c(NC(=O)/C=C3\CCOc4cc(C(F)(F)F)ccc43)cccc21 [Example 308, (E)-2-(7-trifluoromethylchroman-4-ylidene)-N-(3,4-dihydro-1-ethyl-2(1H)-quinazolinone-5-yl)acetamide] |  |
| A (A2 value of less than 100 nM) |  | O=C(/C=C1\CCCOc2cc(C(F)(F)F)ccc21)Nc1ccc2c(c1)NC(=O)C(N1CCOCC1)C2 (single isomer, unassigned) [EXAMPLE 35, (E)-2-(8-trifluoromethyl-3,4-dihydrobenzo[b]oxepin-5(2H)-ylidene)-N-(3-(4-morpholinyl)-3,4-dihydro-2(1H)-quinolinon-7-yl)acetamide] | − (the maximum value was less than 0.5 degree Celsius) |
